Reference: patent publication US12421232B2, “Kinase inhibitor compounds and compositions and methods of use” (ICAHN SCHOOL OF MEDICINE AT MOUNT SINAI, priority 2018, dated 2025)
pIC50: −log10 of the molar value.

Columns and labels:
[1] = test system: human β-cells (dispersed human islet cells); assay: Human β-cell proliferation assay (Ki67 and insulin staining); type: cell-based; conditions: for Human β-Cell proliferation: 96 hours
[2] = molecular target: T1, CSNK1G2 (Homo sapiens, UniProt P78368); assay: KINOMEscan Assay (DiscoverX); type: binding; conditions: CSNK1G2; 10 μM
T1 construct: purchased DiscoverX

[3] = molecular target: T2, CSNK2A1 (Homo sapiens, UniProt P68400); assay: KINOMEscan Assay (DiscoverX); type: binding; conditions: CSNK2A1; 10 μM
T2 construct: purchased DiscoverX

[4] = molecular target: T3, HIPK2 (Homo sapiens, UniProt Q9H2X6); assay: KINOMEscan Assay (DiscoverX); type: binding; conditions: HIPK2; 10 μM
T3 construct: purchased DiscoverX

[5] = molecular target: T4, VPS34 (Homo sapiens, UniProt Q8NEB9); assay: KINOMEscan Assay (DiscoverX); type: binding; conditions: VPS34; 10 μM
T4 construct: purchased DiscoverX

[6] = molecular target: T5, PIK3CG (Homo sapiens, UniProt P48736); assay: KINOMEscan Assay (DiscoverX); type: binding; conditions: read-out: % DMSO Ctrl
T5 construct: purchased DiscoverX

[7] = molecular target: T6, JAK3(JH1DOMAIN-CATALYTIC) (Homo sapiens, UniProt P52333); assay: KINOMEscan Assay (DiscoverX); type: binding; conditions: JAK3(JH1DOMAIN-[…]); 10 μM; read-out: % DMSO Ctrl
T6 construct: JH1DOMAIN; purchased DiscoverX

[8] = molecular target: T7, IRAK1 (Homo sapiens, UniProt P51617); assay: KINOMEscan Assay (DiscoverX); type: binding; conditions: IRAK1; 10 μM
T7 construct: purchased DiscoverX

[9] = molecular target: T8, HIPK3 (Homo sapiens, UniProt Q9H422); assay: KINOMEscan Assay (DiscoverX); type: binding; conditions: HIPK3; 10 μM
T8 construct: purchased DiscoverX

[10] = molecular target: T9, FLT3(D835V) (Homo sapiens, UniProt P36888, D835V); assay: KINOMEscan Assay (DiscoverX); type: binding; conditions: FLT3(D835V) mutant; 10 μM; read-out: % DMSO Ctrl
T9 construct: purchased DiscoverX
T9 sequence (P36888 27-993 D835V): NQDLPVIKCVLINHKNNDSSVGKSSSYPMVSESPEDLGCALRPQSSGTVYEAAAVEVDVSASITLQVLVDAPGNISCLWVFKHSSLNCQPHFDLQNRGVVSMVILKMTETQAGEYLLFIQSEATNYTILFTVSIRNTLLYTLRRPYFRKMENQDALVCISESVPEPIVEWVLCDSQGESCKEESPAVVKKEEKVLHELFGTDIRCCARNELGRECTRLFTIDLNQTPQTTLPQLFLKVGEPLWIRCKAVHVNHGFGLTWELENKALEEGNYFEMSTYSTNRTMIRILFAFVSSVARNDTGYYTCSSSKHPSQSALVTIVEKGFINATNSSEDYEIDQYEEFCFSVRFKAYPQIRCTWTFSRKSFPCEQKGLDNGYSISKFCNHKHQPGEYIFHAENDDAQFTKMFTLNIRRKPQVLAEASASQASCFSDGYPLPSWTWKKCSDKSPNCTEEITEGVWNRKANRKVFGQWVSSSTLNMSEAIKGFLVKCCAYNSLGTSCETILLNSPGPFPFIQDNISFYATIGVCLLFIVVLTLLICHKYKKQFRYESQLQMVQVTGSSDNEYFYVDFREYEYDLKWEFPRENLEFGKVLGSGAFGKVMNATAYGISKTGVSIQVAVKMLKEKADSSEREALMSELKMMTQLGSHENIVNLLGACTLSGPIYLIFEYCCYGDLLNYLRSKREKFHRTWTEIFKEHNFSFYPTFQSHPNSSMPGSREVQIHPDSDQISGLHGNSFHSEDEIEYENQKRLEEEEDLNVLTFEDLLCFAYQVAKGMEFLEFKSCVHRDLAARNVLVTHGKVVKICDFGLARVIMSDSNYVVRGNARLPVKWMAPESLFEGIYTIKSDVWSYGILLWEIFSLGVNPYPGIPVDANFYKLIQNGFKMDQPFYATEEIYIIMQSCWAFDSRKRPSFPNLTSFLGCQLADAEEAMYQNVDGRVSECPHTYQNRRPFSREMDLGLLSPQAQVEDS

[11] = test system: NFAT2-GFP nuclear translocation in R7T1 rodent beta cells; assay: NFAT2 translocation assay; type: cell-based; conditions: 10 μM, 24 hours
From the text: NFAT2T Translocation Assay. […] At least 1000 cells were counted.

[12] = molecular target: T10, PIM3 (Homo sapiens, UniProt Q86V86); assay: KINOMEscan Assay (DiscoverX); type: binding; conditions: PIM3; 10 μM; read-out: % DMSO Ctrl
T10 construct: purchased DiscoverX

[13] = molecular target: DYRK1A (Homo sapiens, UniProt Q13627); assay: FRET-based LanthaScreen Eu Kinase Binding Assay (Life Technologies)
[14] = test system: FLT3(ITD,D835V); assay: KINOMEscan Assay (DiscoverX); type: binding; conditions: FLT3(ITD,D835V) mutant; 10 μM
[15] = test system: FLT3(ITD); assay: KINOMEscan Assay (DiscoverX); type: binding; conditions: FLT3(ITD) mutant; 10 μM
[16] = 10 μM, KI67 labeling of insulin cells

T8 sequence (Q9H422 whole entry): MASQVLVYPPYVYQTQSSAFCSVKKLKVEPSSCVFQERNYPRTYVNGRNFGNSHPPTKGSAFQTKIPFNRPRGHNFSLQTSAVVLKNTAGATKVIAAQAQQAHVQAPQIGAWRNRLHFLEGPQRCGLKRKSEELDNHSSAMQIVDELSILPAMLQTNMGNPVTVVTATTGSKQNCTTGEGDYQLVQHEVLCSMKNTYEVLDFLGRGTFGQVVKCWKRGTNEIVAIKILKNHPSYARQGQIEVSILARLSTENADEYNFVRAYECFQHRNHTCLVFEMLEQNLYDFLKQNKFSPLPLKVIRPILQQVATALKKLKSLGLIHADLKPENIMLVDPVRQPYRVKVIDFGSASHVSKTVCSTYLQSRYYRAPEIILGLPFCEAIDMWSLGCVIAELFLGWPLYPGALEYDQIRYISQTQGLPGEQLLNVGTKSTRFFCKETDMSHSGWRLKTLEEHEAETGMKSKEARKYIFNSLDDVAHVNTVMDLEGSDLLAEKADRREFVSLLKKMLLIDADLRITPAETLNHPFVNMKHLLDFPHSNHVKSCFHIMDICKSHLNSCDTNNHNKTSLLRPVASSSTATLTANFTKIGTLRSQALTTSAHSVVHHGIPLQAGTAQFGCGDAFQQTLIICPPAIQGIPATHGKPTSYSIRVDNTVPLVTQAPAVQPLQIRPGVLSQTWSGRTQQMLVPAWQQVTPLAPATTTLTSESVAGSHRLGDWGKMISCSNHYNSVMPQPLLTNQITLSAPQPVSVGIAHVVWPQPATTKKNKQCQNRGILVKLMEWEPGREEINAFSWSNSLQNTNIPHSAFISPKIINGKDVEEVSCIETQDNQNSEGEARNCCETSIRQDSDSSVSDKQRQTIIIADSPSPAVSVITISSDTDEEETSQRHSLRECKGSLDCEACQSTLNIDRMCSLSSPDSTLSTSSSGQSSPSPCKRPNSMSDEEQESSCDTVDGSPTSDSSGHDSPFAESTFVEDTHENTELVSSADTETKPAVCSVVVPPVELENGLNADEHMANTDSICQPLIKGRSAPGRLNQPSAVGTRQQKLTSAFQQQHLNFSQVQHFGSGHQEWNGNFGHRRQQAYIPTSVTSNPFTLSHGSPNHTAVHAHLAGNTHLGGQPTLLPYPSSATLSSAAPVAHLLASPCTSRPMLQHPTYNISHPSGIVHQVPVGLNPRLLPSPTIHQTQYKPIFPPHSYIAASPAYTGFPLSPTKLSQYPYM
T5 sequence (P48736 whole entry): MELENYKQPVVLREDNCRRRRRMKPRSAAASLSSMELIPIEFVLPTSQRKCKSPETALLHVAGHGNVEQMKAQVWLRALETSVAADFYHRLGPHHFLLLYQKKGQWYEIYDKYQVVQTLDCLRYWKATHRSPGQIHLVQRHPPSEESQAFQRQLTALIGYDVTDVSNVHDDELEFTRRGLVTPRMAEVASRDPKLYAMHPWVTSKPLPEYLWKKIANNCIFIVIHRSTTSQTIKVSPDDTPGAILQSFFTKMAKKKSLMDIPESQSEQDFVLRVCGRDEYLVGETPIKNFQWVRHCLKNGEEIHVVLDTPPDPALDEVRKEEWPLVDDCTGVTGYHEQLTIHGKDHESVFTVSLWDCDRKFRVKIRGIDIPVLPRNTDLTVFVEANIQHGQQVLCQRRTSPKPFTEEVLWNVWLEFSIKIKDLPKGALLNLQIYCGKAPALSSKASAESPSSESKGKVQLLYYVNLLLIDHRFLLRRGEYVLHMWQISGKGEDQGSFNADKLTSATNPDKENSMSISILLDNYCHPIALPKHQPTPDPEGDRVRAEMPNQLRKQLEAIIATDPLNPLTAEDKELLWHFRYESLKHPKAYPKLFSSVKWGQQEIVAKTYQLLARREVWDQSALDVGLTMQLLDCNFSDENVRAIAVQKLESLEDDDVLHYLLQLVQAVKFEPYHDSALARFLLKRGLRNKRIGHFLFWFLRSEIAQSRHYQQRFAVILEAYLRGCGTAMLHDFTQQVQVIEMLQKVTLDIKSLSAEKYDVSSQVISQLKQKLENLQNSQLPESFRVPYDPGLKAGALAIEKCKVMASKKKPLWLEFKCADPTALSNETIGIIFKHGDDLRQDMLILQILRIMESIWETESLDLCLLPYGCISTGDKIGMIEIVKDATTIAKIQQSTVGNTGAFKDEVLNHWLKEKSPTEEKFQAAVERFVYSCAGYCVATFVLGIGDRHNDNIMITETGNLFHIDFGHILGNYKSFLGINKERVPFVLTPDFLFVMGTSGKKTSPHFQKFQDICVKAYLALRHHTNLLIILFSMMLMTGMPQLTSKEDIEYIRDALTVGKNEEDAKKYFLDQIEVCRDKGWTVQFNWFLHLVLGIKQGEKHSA
T6 sequence (P52333 822-1111 limits assumed): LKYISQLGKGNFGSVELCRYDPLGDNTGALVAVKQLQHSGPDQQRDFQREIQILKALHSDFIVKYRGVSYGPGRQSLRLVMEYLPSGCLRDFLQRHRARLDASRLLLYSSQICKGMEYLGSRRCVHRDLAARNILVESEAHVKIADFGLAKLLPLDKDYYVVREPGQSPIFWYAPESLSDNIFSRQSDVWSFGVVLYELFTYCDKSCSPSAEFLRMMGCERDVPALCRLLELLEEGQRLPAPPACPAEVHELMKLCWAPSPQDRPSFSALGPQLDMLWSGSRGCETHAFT
T2 sequence (P68400 whole entry): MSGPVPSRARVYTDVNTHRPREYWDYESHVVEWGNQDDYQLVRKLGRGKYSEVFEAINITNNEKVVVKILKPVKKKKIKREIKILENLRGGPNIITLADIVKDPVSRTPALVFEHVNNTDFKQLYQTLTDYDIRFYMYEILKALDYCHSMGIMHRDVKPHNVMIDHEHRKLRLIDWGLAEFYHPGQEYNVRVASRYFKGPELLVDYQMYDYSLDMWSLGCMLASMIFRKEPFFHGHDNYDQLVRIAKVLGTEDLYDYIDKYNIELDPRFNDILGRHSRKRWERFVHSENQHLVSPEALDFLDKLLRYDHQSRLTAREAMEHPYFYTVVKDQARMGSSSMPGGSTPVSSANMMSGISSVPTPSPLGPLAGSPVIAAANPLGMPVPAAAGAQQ
T4 sequence (Q8NEB9 whole entry): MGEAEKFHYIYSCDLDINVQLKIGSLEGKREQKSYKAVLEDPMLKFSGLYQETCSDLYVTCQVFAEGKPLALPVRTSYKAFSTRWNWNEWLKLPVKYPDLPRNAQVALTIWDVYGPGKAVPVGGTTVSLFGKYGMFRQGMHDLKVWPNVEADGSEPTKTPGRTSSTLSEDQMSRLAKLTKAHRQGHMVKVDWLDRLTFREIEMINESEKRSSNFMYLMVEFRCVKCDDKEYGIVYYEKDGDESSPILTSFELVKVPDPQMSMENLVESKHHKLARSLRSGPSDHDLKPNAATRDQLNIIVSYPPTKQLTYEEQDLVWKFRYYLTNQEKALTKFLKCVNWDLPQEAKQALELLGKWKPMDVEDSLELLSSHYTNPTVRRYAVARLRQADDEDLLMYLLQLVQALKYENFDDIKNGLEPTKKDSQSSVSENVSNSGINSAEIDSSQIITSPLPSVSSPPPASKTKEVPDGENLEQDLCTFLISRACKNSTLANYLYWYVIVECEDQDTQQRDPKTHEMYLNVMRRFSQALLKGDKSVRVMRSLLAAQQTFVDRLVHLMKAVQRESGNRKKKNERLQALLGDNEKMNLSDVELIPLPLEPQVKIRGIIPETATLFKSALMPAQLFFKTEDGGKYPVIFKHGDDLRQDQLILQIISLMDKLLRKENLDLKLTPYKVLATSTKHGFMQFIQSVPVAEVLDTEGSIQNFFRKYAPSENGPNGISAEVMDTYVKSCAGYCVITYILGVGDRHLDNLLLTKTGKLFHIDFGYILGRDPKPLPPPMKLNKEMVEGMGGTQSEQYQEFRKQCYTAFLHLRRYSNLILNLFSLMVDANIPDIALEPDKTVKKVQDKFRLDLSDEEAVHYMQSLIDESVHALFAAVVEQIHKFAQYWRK
T7 sequence (P51617 whole entry): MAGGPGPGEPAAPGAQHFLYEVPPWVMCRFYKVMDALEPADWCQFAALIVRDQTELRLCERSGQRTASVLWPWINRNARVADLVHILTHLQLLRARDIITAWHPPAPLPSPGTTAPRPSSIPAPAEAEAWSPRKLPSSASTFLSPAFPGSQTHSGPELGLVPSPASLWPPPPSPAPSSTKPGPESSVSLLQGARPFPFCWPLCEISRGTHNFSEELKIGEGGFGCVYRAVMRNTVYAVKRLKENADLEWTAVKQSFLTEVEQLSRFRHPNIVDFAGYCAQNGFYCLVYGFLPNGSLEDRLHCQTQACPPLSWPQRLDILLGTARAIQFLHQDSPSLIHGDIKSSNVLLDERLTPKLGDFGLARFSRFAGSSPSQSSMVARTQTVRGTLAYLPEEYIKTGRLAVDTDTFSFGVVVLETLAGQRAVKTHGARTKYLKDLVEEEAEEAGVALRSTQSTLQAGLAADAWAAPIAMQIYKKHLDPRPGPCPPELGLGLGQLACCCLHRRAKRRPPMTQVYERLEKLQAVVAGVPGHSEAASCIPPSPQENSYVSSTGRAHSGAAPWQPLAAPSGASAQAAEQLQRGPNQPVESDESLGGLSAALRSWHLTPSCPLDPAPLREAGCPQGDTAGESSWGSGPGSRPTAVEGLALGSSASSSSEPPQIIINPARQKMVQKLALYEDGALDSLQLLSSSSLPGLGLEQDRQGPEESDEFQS

## 4-(7-Methoxy-1-methyl-β-carbolin-9-yl)propionitrile [Compound 20-1o]
[1]; 10 μM
  Human β-Cell proliferation: 1 (10)

## COc1ccc2c(c1)[nH]c1c(Cl)nccc12 [Compound 1-5, 1-Chloro-7-Methoxy-9H-β-Carboline]
[1]; [16]
  human β-cell proliferation (in words): very good human β-cell proliferation
[1]; concentration not given
  human β-cell proliferation (in words): human β-cell proliferation comparable to that of harmine

## COc1ccc2c(c1)[nH]c1c(N3CCC3)nccc12 [Compound 1-6a, 1-(Azetidin-1-yl)-7-Methoxy-9H-β-Carboline]
[1]; concentration not given
  human β-cell proliferation (in words): did not show any β-cell proliferation

## COc1ccc2c(c1)[nH]c1c(N3CCCC3)nccc12 [Compound 1-6b, 1-(Pyrrolidin-1-yl)-7-Methoxy-9H-β-Carboline]
[1]; concentration not given
  human β-cell proliferation (in words): did not show any β-cell proliferation

## COc1ccc2c(c1)[nH]c1c(N3CCCC3c3ccccc3)nccc12 (stereo not drawn) [Compound 1-6d, 1-(2-Phenylpyrrolidin-1-yl)-7-Methoxy-9H-β-Carboline]
[1]; concentration not given
  human β-cell proliferation (in words): did not show any β-cell proliferation

## COc1ccc2c(c1)[nH]c1c(N3CCCC3Cc3ccccc3)nccc12 (stereo not drawn) [Compound 1-6f, 1-(2-Benzylpyrrolidin-1-yl)-7-Methoxy-9H-β-Carboline]
[1]; concentration not given
  human β-cell proliferation (in words): did not show any β-cell proliferation

## COc1ccc2c(c1)[nH]c1c(CO)nccc12 [Compound 2-2, 1-Hydroxymethyl-7-Methoxy-9H-β-Carboline]
[2]
  % DMSO Ctrl: no inhibition
[3]
  % DMSO Ctrl: no inhibition
[1]; at 30 μM
  beta cell toxicity: did not cause toxicity
[4]
  % DMSO Ctrl: no inhibition
[5]
  % DMSO Ctrl: no inhibition
[6]
  remaining binding at 10 µM: 44%
[7]
  remaining binding at 10 µM: 99%
[8]
  % DMSO Ctrl: no inhibition
[9]
  % DMSO Ctrl: no inhibition
[10]
  remaining binding at 10 µM: 37%
[11]
  NFAT2 translocation to nucleus: drove NFAT2 translocation to nucleus
[12]
  remaining binding at 10 µM: 77%

## COc1ccc2c(c1)[nH]c1c(C(C)=O)nccc12 [Compound 3-2, 1-acetyl-7-methoxy-9H-β-carboline]
[1]; [16]
  human β-cell proliferation (in words): reduced β-cell proliferation
[1]; 30 μM
  human β-cell proliferation (in words): proliferation in the range comparable to harmine
[1]; concentration not given
  human β-cell proliferation (in words): human β-cell proliferation comparable to that of harmine

## Cc1nccc2c1[nH]c1cc(OCCCCCC(N)=O)ccc12 [Compound 10-3e, 6-(7-oxy-1-methyl-9-H-b-carbolin)hexanamide]
[1]; 10 μM
  Human β-Cell proliferation: 0.2 (10)
[1]; concentration not given
  human β-cell proliferation (in words): reduced jβ-cell proliferation compared to harmine

## C=CCn1c2cc(OC)ccc2c2ccnc(C)c21 [Compound 20-1t, 3-(7-Methoxy-1-methyl-β-carbolin-9-yl)-propan-1-ene]
[13]
  pIC50: 7.38

## COc1ccc2c3ccnc(C)c3n(Cc3ccccc3)c2c1 [Compound 20-1x, 1-(7-Methoxy-1-methyl-β-carbolin-9-yl)-1-phenylmethane]
[13]
  pIC50: 6.56

## COc1ccc2c3ccnc(C)c3n(CCc3ccccc3)c2c1 [Compound 20-1y, 2-(7-Methoxy-1-methyl-β-carbolin-9-yl)-1-phenylethane]
[13]
  pIC50: 7.51

## COc1ccc2c3ccnc(C)c3n(CCCC(N)=O)c2c1 [Compound 20-2c, 4-(7-Methoxy-1-methyl-β-carbolin-9-yl)butanamide]
[14]
  % DMSO Ctrl: 38 % DMSO Ctrl
[15]
  % DMSO Ctrl: 57 % DMSO Ctrl

## CCCC(C)NC(=O)C(C)(C)CCn1c2cc(OC)ccc2c2ccnc(C)c21 (stereo not drawn) [Compound 20-10l, N-(1-methylbutyl)-4-(7-Methoxy-1-methyl-β-carbolin-9-yl)-α,α-dimethylbutanamide]
[13]
  pIC50: 7.11

## C#CCCn1c2cc(OC)ccc2c2ccnc(C)c21 [Compound 20-23b, 4-(7-Methoxy-1-methyl-β-carbolin-9-yl)-but-1-yne]
[13]
  pIC50: 7.48

## COCCn1cc(CCCn2c3cc(OC)ccc3c3ccnc(C)c32)nn1 [Compound 20-24b, 4-(3-(7-Methoxy-1-methyl-β-carbolin-9-yl)propyl)-1-(2-methoxyethyl)-1,2,3-triazole]
[13]
  pIC50: 6.36

## COc1ccc2c3ccnc(C)c3n(Cc3noc(N)n3)c2c1 [Compound 20-38a, 1-(1-(7-methoxy-1-methyl-β-carbolin-9-yl)methyl)-5-amino-1,2,4-oxadiazole]
[13]
  pIC50: 6.86

## COc1ccc2c3ccnc(C)c3n(CCc3noc(N)n3)c2c1 [Compound 20-38b, 3-(3-(7-methoxy-1-methyl-β-carbolin-9-yl)ethyl)-5-amino-1,2,4-oxadiazole]
[13]
  pIC50: 7.18

## COc1ccc2c3ccnc(C)c3n(CCCCc3noc(N)n3)c2c1 [Compound 20-38c, 5-(5-(7-methoxy-1-methyl-β-carbolin-9-yl)butyl)-5-amino-1,2,4-oxadiazole]
[13]
  pIC50: 6.99

## COc1ccc2c3ccnc(C)c3n(CCC(C)(C)C(N)=O)c2c1 [Compound 20-40, 2,2-dimethyl-4-(7-Methoxy-1-methyl-β-carbolin-9-yl)butanamide]
[13]
  pIC50: 7.70

## Ethyl 4-(7-Methoxy-1-methyl-β-carbolin-9-yl)butanecarboximidate hydrochloride [Compound 20-22]
[1]; 10 μM
  Human β-Cell proliferation: 0.8 (10)
